Results from PMC3918950 (Experimental eye research, 2013).

How the values were obtained:
[1] = system: Y-79 cells; assay: Anti-proliferative activity; format: cell-based, human; settings: for IC50: Homo sapiens, Y79, read-out: IC50 against retinoblastoma cells; for Reduction of IC50 value in the presence of moxifloxacin: Y-79, MTT, moxifloxacin 500 µM
[2] = system: IL-6; assay: Pro-inflammatory cytokines assay, IL-6 release; format: cell-based, human; settings: 48 h; for Reduction of IL-6 release in presence of moxifloxacin: moxifloxacin 500 µM
[3] = biological target: T1, MRP2 (Homo sapiens, UniProt Q92887); assay: in vitro; settings: dog
[4] = biological target: T2, MDR1 (Homo sapiens, UniProt P08183); assay: in vitro; settings: MDCK-MDR1
[5] = system: IL-8; assay: Pro-inflammatory cytokines assay, IL-8 release; format: cell-based, human; settings: 48 h; for Reduction of IL-8 release in presence of moxifloxacin: moxifloxacin 500 µM
[6] = biological target: T1, MRP2; settings: MDCK-MRP2; [14C]-erythromycin 0.25 µCi/mL; 30 min; in presence of MK571 50 µM
[7] = system: caspase-3; assay: Caspase-3 assay in Y-79 cells; format: cell-based, human
[8] = biological target: T2, MDR1; assay: cell-based
[9] = biological target: T2, MDR1; assay: in vitro; settings: MDCK-MDR1, pH 7.4
[10] = in vitro; settings: dog, MDCK, pH 7.4
[11] = biological target: T2, MDR1
[12] = biological target: T1, MRP2; assay: Bi-directional transport of moxifloxacin across MDCK-MRP2 cells; format: in vitro ADME
[13] = biological target: T1, MRP2; assay: cell-based
[14] = biological target: T2, MDR1; assay: Bidirectional transport of anticancer agents across MDCK-MDR1 cells; settings: moxifloxacin 500 µM
[15] = biological target: T1, MRP2; assay: Bidirectional transport of anticancer agents across MDCK-MRP2 cells; settings: moxifloxacin 500 µM
[16] = biological target: T1, MRP2; assay: Bi-directional transport of [14C]-erythromycin across MDCK-MRP2 cells; format: in vitro ADME; settings: pH 7.4
[17] = biological target: T2, MDR1; assay: Bi-directional transport of [14C]-erythromycin across MDCK-MDR1 cells; format: in vitro ADME; settings: MDCK-MDR1, pH 7.4
[18] = system: caspase-3; settings: read-out: Km (caspase-3 substrate); ref Anaspec, San Jose, CA; cited from earlier work
[19] = conclusion from uptake and bi-directional transport

T1 sequence (Q92887 whole entry): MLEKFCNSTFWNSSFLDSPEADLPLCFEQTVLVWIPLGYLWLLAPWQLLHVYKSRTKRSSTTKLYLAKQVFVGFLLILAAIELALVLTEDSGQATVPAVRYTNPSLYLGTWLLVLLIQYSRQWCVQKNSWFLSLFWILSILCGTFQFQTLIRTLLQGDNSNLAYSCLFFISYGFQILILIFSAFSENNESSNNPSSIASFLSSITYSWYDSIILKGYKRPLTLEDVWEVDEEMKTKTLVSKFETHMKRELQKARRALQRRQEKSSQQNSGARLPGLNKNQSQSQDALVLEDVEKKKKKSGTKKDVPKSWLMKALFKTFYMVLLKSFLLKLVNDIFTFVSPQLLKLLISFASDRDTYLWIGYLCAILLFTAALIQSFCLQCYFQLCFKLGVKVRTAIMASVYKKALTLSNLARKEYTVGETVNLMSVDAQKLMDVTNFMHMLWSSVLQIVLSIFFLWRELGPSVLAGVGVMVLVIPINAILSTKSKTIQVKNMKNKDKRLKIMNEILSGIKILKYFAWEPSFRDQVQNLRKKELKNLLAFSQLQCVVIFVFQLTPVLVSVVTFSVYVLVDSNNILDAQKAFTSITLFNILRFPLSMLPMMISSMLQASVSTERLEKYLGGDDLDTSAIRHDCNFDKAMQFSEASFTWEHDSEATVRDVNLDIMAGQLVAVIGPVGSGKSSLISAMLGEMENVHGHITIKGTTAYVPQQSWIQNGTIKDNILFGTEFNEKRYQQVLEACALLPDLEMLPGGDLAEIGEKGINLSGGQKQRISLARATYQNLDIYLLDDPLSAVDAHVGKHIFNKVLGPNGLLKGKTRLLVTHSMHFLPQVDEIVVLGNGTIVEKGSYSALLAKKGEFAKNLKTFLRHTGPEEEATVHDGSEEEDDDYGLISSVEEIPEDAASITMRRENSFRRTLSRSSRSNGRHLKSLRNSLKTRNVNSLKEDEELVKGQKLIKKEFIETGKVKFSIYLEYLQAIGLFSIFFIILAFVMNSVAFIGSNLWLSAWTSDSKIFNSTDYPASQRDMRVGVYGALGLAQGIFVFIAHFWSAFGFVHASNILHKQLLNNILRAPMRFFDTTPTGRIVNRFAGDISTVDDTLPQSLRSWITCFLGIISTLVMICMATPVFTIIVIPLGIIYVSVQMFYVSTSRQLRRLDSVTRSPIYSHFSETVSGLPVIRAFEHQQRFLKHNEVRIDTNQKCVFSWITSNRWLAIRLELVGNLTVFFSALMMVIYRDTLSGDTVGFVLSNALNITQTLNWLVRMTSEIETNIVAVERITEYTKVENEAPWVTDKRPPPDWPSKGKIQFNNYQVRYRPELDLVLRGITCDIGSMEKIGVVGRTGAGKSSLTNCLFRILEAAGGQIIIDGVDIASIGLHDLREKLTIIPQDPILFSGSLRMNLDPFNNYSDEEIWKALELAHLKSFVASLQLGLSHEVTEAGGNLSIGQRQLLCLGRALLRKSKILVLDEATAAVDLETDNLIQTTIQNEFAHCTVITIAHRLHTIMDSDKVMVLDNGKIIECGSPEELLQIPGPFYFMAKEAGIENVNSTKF
T2 sequence (P08183 whole entry): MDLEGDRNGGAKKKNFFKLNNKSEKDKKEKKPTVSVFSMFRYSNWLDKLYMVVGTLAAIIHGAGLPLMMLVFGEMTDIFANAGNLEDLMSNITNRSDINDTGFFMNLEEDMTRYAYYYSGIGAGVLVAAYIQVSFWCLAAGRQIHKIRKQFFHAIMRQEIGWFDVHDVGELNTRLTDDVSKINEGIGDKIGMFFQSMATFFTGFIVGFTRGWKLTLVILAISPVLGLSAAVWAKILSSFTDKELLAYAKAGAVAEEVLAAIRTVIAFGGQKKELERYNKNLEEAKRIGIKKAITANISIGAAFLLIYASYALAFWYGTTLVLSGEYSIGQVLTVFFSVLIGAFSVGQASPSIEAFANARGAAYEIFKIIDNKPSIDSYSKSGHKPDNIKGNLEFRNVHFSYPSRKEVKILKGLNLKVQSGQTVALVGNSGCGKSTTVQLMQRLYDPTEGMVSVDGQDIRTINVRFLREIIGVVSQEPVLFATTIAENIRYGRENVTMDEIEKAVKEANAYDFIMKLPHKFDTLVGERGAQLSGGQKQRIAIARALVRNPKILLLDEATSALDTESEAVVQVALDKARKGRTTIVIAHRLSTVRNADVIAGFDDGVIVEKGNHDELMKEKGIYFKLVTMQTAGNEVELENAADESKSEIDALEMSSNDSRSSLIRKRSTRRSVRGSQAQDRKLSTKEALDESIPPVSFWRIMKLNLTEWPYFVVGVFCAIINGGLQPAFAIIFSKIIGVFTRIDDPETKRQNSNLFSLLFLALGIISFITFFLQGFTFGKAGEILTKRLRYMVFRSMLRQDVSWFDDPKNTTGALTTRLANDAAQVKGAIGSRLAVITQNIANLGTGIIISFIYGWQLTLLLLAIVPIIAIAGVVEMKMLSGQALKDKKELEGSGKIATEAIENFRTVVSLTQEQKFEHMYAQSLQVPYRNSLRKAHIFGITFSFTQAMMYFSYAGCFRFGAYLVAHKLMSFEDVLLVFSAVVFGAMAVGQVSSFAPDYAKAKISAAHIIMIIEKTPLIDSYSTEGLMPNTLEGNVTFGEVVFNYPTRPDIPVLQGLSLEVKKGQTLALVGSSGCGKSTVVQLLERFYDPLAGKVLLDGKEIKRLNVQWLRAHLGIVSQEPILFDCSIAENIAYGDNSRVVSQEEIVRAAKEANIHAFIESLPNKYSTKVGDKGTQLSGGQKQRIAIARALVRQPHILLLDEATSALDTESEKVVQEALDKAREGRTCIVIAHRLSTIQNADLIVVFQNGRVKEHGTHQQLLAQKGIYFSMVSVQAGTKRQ

Papp A→B at 0.5 µCi/mL [3] [×10⁻⁶ cm/s] | Papp B→A at 0.5 µCi/mL [3] [×10⁻⁶ cm/s] | Papp A→B at 0.5 µCi/mL [4] [×10⁻⁶ cm/s] | Papp B→A at 0.5 µCi/mL [4] [×10⁻⁶ cm/s] | Compound | IC50 [1] [µM] | Reduction of IC50 value in the presence of moxifloxacin [1] [fold] | Release of IL-6 ([2]; anticancer agent 0.5 µg alone) [pg/mL] | Reduction of IL-6 release in presence of moxifloxacin ([2]; anticancer agent 0.5 µg) [fold] | Release of IL-6 ([2]; anticancer agent 1.0 µg alone) [pg/mL] | Reduction of IL-6 release in presence of moxifloxacin ([2]; anticancer agent 1.0 µg) [fold] | Release of IL-8 ([5]; anticancer agent 0.5 µg alone) [pg/mL] | Reduction of IL-8 release in presence of moxifloxacin ([5]; anticancer agent 0.5 µg) [fold] | Release of IL-8 ([5]; anticancer agent 1.0 µg alone) [pg/mL] | Reduction of IL-8 release in presence of moxifloxacin ([5]; anticancer agent 1.0 µg) [fold] | other results
37.8 ± 2.7 | 207 ± 17.4 | 3.57 ± 0.65 | 11.6 ± 1.78 | COc1cc([C@@H]2c3cc4c(cc3[C@@H](O[C@@H]3O[C@@H]5CO[C@@H](C)O[C@H]5[C@H](O)[C@H]3O)[C@H]3COC(=O)[C@H]23)OCO4)cc(OC)c1O [Etoposide] | 27.1 | 13 | 105.20 ± 3.90 | 1.3 | 151.40 ± 10.00 | 1.4 | 191.90 ± 9.10 | 1.60 | 286.60 ± 16.60 | 1.28 | 
 |  |  |  | CN(C)C(=O)CCSC(SCCC(=O)O)c1cccc(/C=C/c2ccc3ccc(Cl)cc3n2)c1 (centres unmarked) [MK571] |  |  |  |  |  |  |  |  |  |  | Cellular accumulation of [14C]-erythromycin relative to control [6]: 273%
 |  |  |  | COc1c(N2C[C@@H]3CCCN[C@@H]3C2)c(F)cc2c(=O)c(C(=O)O)cn(C3CC3)c12 [Moxifloxacin] |  |  |  |  |  |  |  |  |  |  | Caspase-3 activity, moxifloxacin alone [7]: slightly elevated; IC50 [8]: 217 µM; Papp A→B at 500 µM [9]: 5.81 ± 0.44 ×10⁻⁶ cm/s; Papp B→A at 500 µM [9]: 20.5 ± 2.26 ×10⁻⁶ cm/s; Papp A→B at 500 µM [10]: 5.7 ± 0.04 ×10⁻⁶ cm/s; Papp B→A at 500 µM [10]: 7.4 ± 0.14 ×10⁻⁶ cm/s; Increase of AP-BL permeability of moxifloxacin ([11]; MDCK-MDR1, in presence of GF120918): 2.80 times; Substrate of MDR1 efflux transporter [11, 19]: substrate; Increase of AP-BL permeability of moxifloxacin ([12]; MDCK-MRP2, in presence of MK571): 2.10 times; Substrate of MRP2 efflux transporter [12, 19]: substrate; Papp A→B at 500 µM ([12]; human, pH 7.4): 0.78 ± 0.13 ×10⁻⁶ cm/s; Papp B→A at 500 µM ([12]; human, pH 7.4): 1.97 ± 0.41 ×10⁻⁶ cm/s; IC50 [13]: 187 µM
8.06 ± 0.66 | 24.8 ± 2.44 | 0.75 ± 0.03 | 3.5 ± 0.28 | CC[C@@]1(O)C(=O)OCc2c1cc1n(c2=O)Cc2cc3c(CN(C)C)c(O)ccc3nc2-1 [Topotecan] | 27.9 | 10 | 156.90 ± 2.70 | 1.3 | 157.50 ± 8.80 | 1.2 | 157.70 ± 12.60 | 1.48 | 239.20 ± 13.90 | 1.30 | efflux ratio at 0.5 µCi/mL [3]: 3.07; efflux ratio at 0.5 µCi/mL [4]: 4.63; Elevation of AP-BL permeability by moxifloxacin [14]: 2.08 fold; Elevation of AP-BL permeability by moxifloxacin [15]: 1.57 fold
13.5 ± 3.24 | 73.8 ± 8.16 | 1.55 ± 0.03 | 10.2 ± 0.47 | CC[C@]1(O)C[C@@H]2CN(CCc3c([nH]c4ccccc34)[C@@](C(=O)OC)(c3cc4c(cc3OC)N(C)[C@H]3[C@@](O)(C(=O)OC)[C@H](OC(C)=O)[C@]5(CC)C=CCN6CC[C@]43[C@@H]65)C2)C1 [Vinblastine] | 0.0519 | 2 | 52.90 ± 4.30 | 1.11 | 73.60 ± 2.30 | 1.42 | 140.20 ± 14.40 | 1.40 | 284.90 ± 18.00 | 1.08 | Elevation of AP-BL permeability by moxifloxacin [14]: 2.55 fold
 |  |  |  | CC[C@H]1OC(=O)[C@H](C)[C@@H](O[C@H]2C[C@@](C)(OC)[C@@H](O)[C@H](C)O2)[C@H](C)[C@@H](O[C@@H]2O[C@H](C)C[C@H](N(C)C)[C@H]2O)[C@](C)(O)C[C@@H](C)C(=O)[C@H](C)[C@@H](O)[C@]1(C)O [[^14C]-erythromycin, Erythromycin] |  |  |  |  |  |  |  |  |  |  | Papp B→A at 3 h, 0.5 µCi/mL [16]: 2.7 ± 0.18 ×10⁻⁶ cm/s; Papp A→B at 3 h, 0.5 µCi/mL [17]: 5.44 ± 0.52 ×10⁻⁶ cm/s; Papp B→A at 3 h, 0.5 µCi/mL [17]: 18.8 ± 1.05 ×10⁻⁶ cm/s
 |  |  |  | Ac-DEVD-AMC |  |  |  |  |  |  |  |  |  |  | Km [18]: 9.7 µM
